Counter-ions that a name gives are not always drawn.
Assays:
human spermatozoa [1] = assay: hyperactivated motile sperm, percent change vs DMSO (capacitating); higher = more of the measured sperm population than DMSO, for viability, fewer PI-positive (dead) cells than DMSO; conditions: incubation time: 30min incubation
HeLa [2] = assay: HeLa toxicity: nuclei-count effect normalised to DMSO (DMSO = 0); higher = more features changed / larger toxic effect; conditions: incubation time: 24h incubation
human spermatozoa [3] = assay: viability fold change, 1 - (PI-positive fraction / DMSO median); higher = more of the measured sperm population than DMSO, for viability, fewer PI-positive (dead) cells than DMSO; conditions: incubation time: 3h, non-capacitating
human spermatozoa [4] = assay: acrosome-reacted (PNA+) sperm after agonist cocktail, percent change vs DMSO (capacitating); higher = more of the measured sperm population than DMSO, for viability, fewer PI-positive (dead) cells than DMSO; conditions: incubation time: 3h, capacitating + agonist cocktail 1h
human spermatozoa [5] = assay: progressively motile sperm, percent change vs DMSO (capacitating); higher = more of the measured sperm population than DMSO, for viability, fewer PI-positive (dead) cells than DMSO; conditions: incubation time: 30min incubation
human spermatozoa [6] = assay: total motile sperm, percent change vs DMSO (non-capacitating); higher = more of the measured sperm population than DMSO, for viability, fewer PI-positive (dead) cells than DMSO
HepG2 = HepG2 toxicity (resazurin), effect normalised to DMSO (DMSO = 0); higher = more features changed / larger toxic effect; conditions: incubation time: 70h incubation
human spermatozoa [7] = assay: change in acrosome-reacted (PNA+) sperm vs DMSO, no agonist (capacitating); higher = more of the measured sperm population than DMSO, for viability, fewer PI-positive (dead) cells than DMSO; conditions: incubation time: 3h
HeLa [8] = assay: Cell Painting percent induction (share of features beyond 2 z-scores vs DMSO); higher = more features changed / larger toxic effect; extreme values may be limits of the assay; conditions: incubation time: 24h incubation
human spermatozoa [9] = assay: progressively motile sperm, percent change vs DMSO (non-capacitating); higher = more of the measured sperm population than DMSO, for viability, fewer PI-positive (dead) cells than DMSO; extreme values may be limits of the assay
[10] = incubation time: 10min incubation, 9.99 µM
[11] = incubation time: 10min incubation, 29.9 µM
[12] = incubation time: 3h incubation, 9.99 µM
[13] = incubation time: 3h incubation, 29.9 µM
[14] = incubation time: 6h incubation, 9.99 µM
[15] = incubation time: 6h incubation, 29.9 µM
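For progressively motile sperm, percent change vs DMSO (non-capacitating) in this document: pooled live human sperm from at least 3 donors, tracked by automated microscopy in 0.5 s time-lapse movies, compounds at 10 and 30 µM, versus median of 16 DMSO wells per plate.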
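For total motile sperm, percent change vs DMSO (non-capacitating) in this document: sperm pooled from at least 3 donors, tracked in 0.5 s time-lapse movies by automated microscopy after 10 min, 3 h or 6 h with compound at 10 or 30 µM.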

Compound | hyperactivated motile sperm (human spermatozoa [1]; 9.99 µM) [%] | hyperactivated motile sperm (human spermatozoa [1]; 29.9 µM) [%] | HeLa toxicity: nuclei-count effect normalised (HeLa [2]; 9.99 µM) [%] | HeLa toxicity: nuclei-count effect normalised (HeLa [2]; 29.9 µM) [%] | viability fold change (human spermatozoa [3]; 9.99 µM) | viability fold change (human spermatozoa [3]; 29.9 µM) | acrosome-reacted (human spermatozoa [4]; 9.99 µM) [%] | acrosome-reacted (human spermatozoa [4]; 29.9 µM) [%] | progressively motile sperm (human spermatozoa [5]; 9.99 µM) [%] | progressively motile sperm (human spermatozoa [5]; 29.9 µM) [%] | total motile sperm (human spermatozoa [6]; [10]) [%] | total motile sperm (human spermatozoa [6]; [11]) [%] | total motile sperm (human spermatozoa [6]; [12]) [%] | total motile sperm (human spermatozoa [6]; [13]) [%] | total motile sperm (human spermatozoa [6]; [14]) [%] | total motile sperm (human spermatozoa [6]; [15]) [%] | HepG2 toxicity (HepG2; 10 µM) [%] | HepG2 toxicity (HepG2; 30 µM) [%] | change in acrosome-reacted (human spermatozoa [7]; 9.99 µM) [%] | change in acrosome-reacted (human spermatozoa [7]; 29.9 µM) [%] | Cell Painting percent induction (HeLa [8]; 9.99 µM) [%] | Cell Painting percent induction (HeLa [8]; 29.9 µM) [%] | progressively motile sperm (human spermatozoa [9]; [10]) [%] | progressively motile sperm (human spermatozoa [9]; [11]) [%] | progressively motile sperm (human spermatozoa [9]; [12]) [%] | progressively motile sperm (human spermatozoa [9]; [13]) [%] | progressively motile sperm (human spermatozoa [9]; [14]) [%] | progressively motile sperm (human spermatozoa [9]; [15]) [%]
CN(C)CCCn1cc(C2=C(c3c[nH]c4ccccc34)C(=O)NC2=O)c2ccccc21 | 11.8 | -3.96 | -5.34 | 3.61 | -0.204 | -0.45 | -2.39 | -7.18 | 4 | 5.48 | 1.63 | 0.0178 | -1.97 | -13.1 | 1.29 | -6.7 | -5.59 | 8.33 | 0.106 | 0.127 | 0.072 | 0.072 | 3.74 | 4.75 | 9.83 | -7.22 | 23.9 | -4.1
CCN(CC)C(=S)SSC(=S)N(CC)CC [Disulfiram] | -82.7 | -88.4 | 16.7 | 49.8 | -0.587 | -1.58 | 86.5 | 13 | -96.3 | -99.9 | -80.8 | -91.5 | -94.3 | -91.5 | -88.6 | -93.2 | -2.95 | 20.2 | 16.4 | 16 | 0 | 0.576 | -96.4 | -100 | -100 | -99.9 | -99.3 | -100
COc1cc2c(cc1OC)-c1c/c(=N\c3c(C)cc(C)cc3C)n(C)c(=O)n1CC2 [Trequinsin hydrochloride] | 192 | 73.7 | -1.54 | 27.5 | -1.81 | -1.99 | 102 | 120 | 8.14 | 16.2 | -3.16 | -4.39 | -11.3 | -17.8 | -12.7 | -22.8 | 11.1 | 40.3 | 1.55 | 1.58 | 0.036 | 0.36 | 33.3 | 28.3 | 76.1 | 48.1 | 76.6 | 44
CCc1cc(Nc2nccc(-c3c(-c4ccc(OC)c(C(=O)Nc5c(F)cccc5F)c4)nc4ccccn34)n2)c(OC)cc1N1CCC(N2CCN(S(C)(=O)=O)CC2)CC1 | -15.3 | -19 | 4.68 | -3.87 | 0.344 | 0.176 | -8.69 | 2.76 | -19.6 | -24.3 | -4.19 | -0.876 | -8.85 | -6.8 | -6.63 | -13 | 3.43 | -1.34 | 0.271 | -0.0593 | 0 | 0.036 | 4.67 | 2.77 | 36.3 | 31.8 | 50.7 | 33.6

— the supplement of paper PMC10878532, “Sperm Toolbox—A selection of small molecules to study human spermatozoa” (PLOS ONE, 2024)
